Experiments:
brain metastases = experiment: MRI signal enhancement in brain metastases, Nano-Rad phase I-b trial; assay type: in vivo, human; conditions: D0, 15 min after i.v. Dotarem 0.2 mL/kg (0.1 mmol/kg); metastases >1 cm; mean ±SD
Source text: This study is part of a prospective dose escalation phase I-b clinical trial to evaluate the tolerance of the intravenous administration of radiosensitizing AGuIX nanoparticles in combination with whole brain radiotherapy for the treatment of brain metastases. The Nano-Rad trial (Radiosensitization of Multiple Brain Metastases Using AGuIX Gadolinium Based Nanoparticles) was registered as NCT02820454. Here, we report the findings of the MRI protocol applied to the 15 recruited patients. The objectives assigned to this MRI ancillary study were to i) assess the distribution of AGuIX nanoparticles in brain metastases and surrounding healthy tissues and ii) to measure the T1-weighted contrast enhancement and nanoparticle concentration in brain metastases and surrounding healthy tissues after intravenous administration of AGuIX nanoparticles (Verry C, et al. BMJ Open. 9:e023591 (2019)).
Patients with multiple brain metastases ineligible for local treatment by surgery or stereotactic radiation were recruited. […]

[1] = magnetic field of 3 Tesla; reference cited; cited from earlier work

In the case of `CNC[C@H](O)[C@@H](O)[C@H](O)[C@H](O)CO.O=C([O-])CN1CCN(CC(=O)[O-])CCN(CC(=O)O)CCN(CC(=O)[O-])CC1.[Gd+3]` [Dotarem, gadoterate meglumine], the “MRI enhancement averaged over all measurable metastases” value (brain metastases) is listed as 182.9±116.2% and the “r1 per Gd^3+ ion” value [1] is listed as 3.5 mM⁻¹ s⁻¹.
